Measured values reported in patent US10611730B2, “Benzimidazolone and benzothiazolone compounds and their use as AMPA receptor modulators” (Janssen Pharmaceutica NV, priority 2015, dated 2020).

Assays:
[1] = system: endogenous γ 8-containing AMPA receptor currents; test: Whole-cell electrophysiology on acutely-dissociated mouse hippocampal neurons; assay type: cell-based; settings: 10 mM glutamate, 500 ms, held at −60 mV
Method: The effects of selected compounds upon endogenous γ 8-containing AMPA receptor currents was evaluated using whole-cell electrophysiology on acutely-dissociated mouse hippocampal neurons. Hippocampus was chosen for this assay, since CACNG8 (the protein encoded by this gene is a type I transmembrane AMPA receptor regulatory protein i.e., TARP) is preferentially enriched in this brain region (Tomita et al. (2003). “Functional studies and distribution define a family of transmembrane AMPA receptor regulatory proteins.” J Cell Biol 161(4): 805-816.2003).
Hippocampi were dissected from C57black6 mice at 4-12 weeks postnatal, following the protocol described by Brewer (Brewer, G. J. (1997). “Isolation and culture of adult rat hippocampal neurons.” Journal of Neuroscience Methods 71(2): 143-155). The following is a brief summary of the procedure. Mice were asphyxiated with CO2 then decapitated. The brain was rapidly removed, then placed into ice-cold HABG medium. The recipe for HABG medium was: HibernateA supplemented with 2% B27 and 0.5 mM Glutamax (all reagents from Life Technologies). Hippocampi were micro-dissected from the brains, then washed with HABG without calcium (Hibernate A minus Calcium, BrainBits; 2% B27, Life Technologies; 0.5 mM glutamax, Life Technologies).
The hippocampi were then transferred to HABG without calcium, supplemented with 2 mg/mL papain (Worthington Biochemical). They were incubated at 30° C. on a roller for 40 min, then gently triturated with a fire-polished glass pipette. The supernatant containing dissociated neurons was collected, then centrifuged for 2 min at 200 g. The cell pellet was collected, and then resuspended in 8 mL of HABG. Live cells were counted, then plated onto 12 mm glass coverslips in HABG (2 mL) in 24-well plates at a density of 50-100 cells per coverslip. These cells were maintained at room temperature until use.
Whole-cell electrophysiology was performed using 1.5 mm diameter glass capillary tubes (World Precision Instruments TW150-4), pulled to a fine tip with a Sutter P-97 micropipette puller. The intracellular buffer was 90 mM KF, 30 mM KCl, 10 mM HEPES, and 5 mM EGTA, pH 7.4, 290 mOs. The extracellular buffer was 135 mM NaCl, 4 mM KCl, 2 mM CaCl2), 1 mM MgCl2, 5 mM glucose, 10 mM HEPES, pH 7.4, 300 mOs. The open-tip resistances of the micropipettes using these solutions were 2-4MΩ. Whole-cell recordings of neuron cell bodies were performed in voltage-clamp mode using an Axon Axopatch 200B amplifier. Whole-cell current was measured holding the interior of the cell at −60 mV, using a 5 kHz lowpass filter. The cells were continuously perfused through 7 mm square glass barrels using a solenoid-controlled solution switching device (Warner Instruments, PF-77B). The peak current in response to a 500 ms exposure to 10 mM glutamate every 5 seconds was measured, before and after exposure to test compound.
For analysis, the mean peak current of 5 traces in the presence of test compound was divided by the mean peak current of 5 traces prior to the addition of test compound. Compounds were tested at concentrations at least ten times higher than their estimated potency in the calcium flux assay, in order to ensure near-saturating occupancy of the receptor.
The table below summarizes the results of this electrophysiological assay. Peak current (% control) is mean of the peak response to glutamate in the presence of the indicated compound, normalized to the peak response to glutamate in the absence of test compound. N is the number of neurons tested. The compounds were tested at concentrations noted below in Table 5. At the said tested concentrations, the peak response to glutamate was reduced compared to controls for all tested compounds.

[2] = target: TARP γ8 dependent AMPA receptor (GluA1o-g8 fusion channel) (Homo sapiens (Human), UniProt P42261+Q8WXS5); test: Calcium flux assay (FLIPR), HEK293 cells expressing GRIA1o-CACNG8 fusion; assay type: cell-based; settings: inhibition of calcium flux after 15 μM glutamate; for IC50: read-out: GluR1-γ8 pIC50 (converted)
Sequence of TARP γ8 dependent AMPA receptor (GluA1o-g8 fusion channel) (P42261 other isoform, or with tags, fused parts or gaps): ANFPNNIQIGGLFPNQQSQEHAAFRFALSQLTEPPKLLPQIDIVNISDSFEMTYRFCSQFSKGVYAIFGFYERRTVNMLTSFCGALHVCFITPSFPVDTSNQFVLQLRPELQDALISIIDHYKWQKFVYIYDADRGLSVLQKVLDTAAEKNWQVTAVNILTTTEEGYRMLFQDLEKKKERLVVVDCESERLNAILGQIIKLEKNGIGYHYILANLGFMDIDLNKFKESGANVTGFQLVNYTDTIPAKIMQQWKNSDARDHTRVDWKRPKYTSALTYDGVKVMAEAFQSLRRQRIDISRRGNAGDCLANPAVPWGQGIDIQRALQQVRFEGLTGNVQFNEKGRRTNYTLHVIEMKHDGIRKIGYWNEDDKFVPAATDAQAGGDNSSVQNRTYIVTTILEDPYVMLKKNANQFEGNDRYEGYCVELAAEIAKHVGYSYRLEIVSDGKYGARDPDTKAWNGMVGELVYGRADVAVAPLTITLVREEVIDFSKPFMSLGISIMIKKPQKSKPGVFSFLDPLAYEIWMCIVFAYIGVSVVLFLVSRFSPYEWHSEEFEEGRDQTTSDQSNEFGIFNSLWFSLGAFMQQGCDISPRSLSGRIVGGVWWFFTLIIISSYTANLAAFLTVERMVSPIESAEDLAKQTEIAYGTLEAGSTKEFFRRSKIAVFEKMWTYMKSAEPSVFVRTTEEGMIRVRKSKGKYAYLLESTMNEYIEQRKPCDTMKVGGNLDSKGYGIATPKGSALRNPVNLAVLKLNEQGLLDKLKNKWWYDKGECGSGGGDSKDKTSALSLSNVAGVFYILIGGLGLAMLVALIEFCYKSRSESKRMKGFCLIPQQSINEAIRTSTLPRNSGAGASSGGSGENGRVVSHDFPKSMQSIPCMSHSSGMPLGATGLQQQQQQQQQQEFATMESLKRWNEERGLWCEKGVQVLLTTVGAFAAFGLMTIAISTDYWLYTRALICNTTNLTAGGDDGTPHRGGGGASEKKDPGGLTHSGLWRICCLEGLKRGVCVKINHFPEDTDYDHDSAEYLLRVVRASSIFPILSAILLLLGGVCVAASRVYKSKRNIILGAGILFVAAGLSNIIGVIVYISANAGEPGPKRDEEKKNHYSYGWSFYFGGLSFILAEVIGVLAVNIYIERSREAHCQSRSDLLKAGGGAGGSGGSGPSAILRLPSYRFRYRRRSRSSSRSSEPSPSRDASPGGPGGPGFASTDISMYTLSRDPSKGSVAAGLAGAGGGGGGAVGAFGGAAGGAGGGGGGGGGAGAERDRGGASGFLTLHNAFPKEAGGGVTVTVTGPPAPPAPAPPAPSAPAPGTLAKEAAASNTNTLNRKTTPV
Method in brief: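 Stable HEK293 clone expressing GluA1o-γ8 fusion (1:1 stoichiometry), loaded with Calcium-5/6 dye plus test compound; glutamate-evoked fluorescence normalized to control wells. Concentration-response fitted to four-parameter logistic, midpoint taken as inhibitory potency.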

IC50 [2] | Structure (SMILES) | peak current (% control) ([1]; 1 μM compound) | peak current (% control) ([1]; 10 μM compound) | GluR1-γ8 pIC50 [2]
63.1 nM | Cc1cccc(Cl)c1-c1ccc2[nH]c(=O)[nH]c2c1 [Example 36, 5-(2-Chloro-6-methyl-phenyl)-1,3-dihydrobenzimidazol-2-one] | 72% | – | –
10 nM | O=c1[nH]c2ccc(-c3c(Cl)ccc(Cl)c3Cl)cc2[nH]1 [Example 66, 5-(2,3,6-Trichlorophenyl)-1,3-dihydrobenzimidazol-2-one] | 86% | – | –
12.6 nM | N#CCc1cccc(Cl)c1-c1ccc2[nH]c(=O)[nH]c2c1 [Example 124, 2-[3-Chloro-2-(2-oxo-1,3-dihydrobenzimidazol-5-yl)phenyl]acetonitrile] | 63% | – | –

Continued, molecule first:

Structure (SMILES) | IC50 [2] | peak current (% control) ([1]; 1 μM compound) | peak current (% control) ([1]; 10 μM compound) | GluR1-γ8 pIC50 [2]
COc1cccc(OCC(C)C)c1-c1ccc2[nH]c(=O)[nH]c2c1 [Example 14, 5-(2-Isobutoxy-6-methoxy-phenyl)-1,3-dihydrobenzimidazol-2-one] | 31.6 nM | 69% | – | –
O=c1[nH]c2ccc(-c3c(Cl)cccc3OC(F)(F)F)cc2[nH]1 [Example 31, 5-[2-Chloro-6-(trifluoromethoxy)phenyl]-1,3-dihydrobenzimidazol-2-one] | – | 61% | – | –
Cc1cccc(C)c1-c1ccc2[nH]c(=O)[nH]c2c1 [Example 2, 5-(2,6-Dimethylphenyl)-1,3-dihydrobenzimidazol-2-one] | – | – | 70% | 6.8
N#CCc1cccc(OC(F)(F)F)c1-c1ccc2[nH]c(=O)[nH]c2c1 [Example 123] | 15.8 nM | 59% | – | –
O=c1[nH]c2ccc(-c3c(Cl)cccc3C3CC3)cc2[nH]1 [Example 160, 5-(2-Chloro-6-cyclopropyl-phenyl)-1,3-dihydrobenzimidazol-2-one] | – | 70% | – | 8.2
